This data set deals with human TGF-beta1 mRNA. The experiment in a line: Antisense inhibition of human TGF-beta1 mRNA in HuVEC cells, single 10 nM dose, Lipofectamine 2000 (Example 2). Format: cell-based. The conditions noted are these: for % inhibition: 10 nM oligonucleotide, HuVEC, relative to untreated control cells, gapmers targeted to SEQ ID NO: 1; for inhibition of a TGF-beta1 mRNA: threshold lists of Oligo IDs, 10 nM. As for the experimental part: Antisense oligonucleotides targeted to a TGF-beta1 nucleic acid were tested for their effects on TGF-beta1 mRNA in vitro. Cultured HuVEC cells at a density of 5,000 cells per well were transfected using Lipofectamine™ 2000 reagent with 10 nM antisense oligonucleotide for 4 hours. After a recovery period of approximately 24 hours, RNA was isolated from the cells and TGF-beta1 mRNA levels were measured by quantitative real-time PCR. TGF-beta1 mRNA levels were adjusted according to total RNA content, as measured by RIBOGREEN®. Results are presented as percent inhibition of TGF-beta1, relative to untreated control cells.
The chimeric antisense oligonucleotides in Tables 1 and 2 were designed as 2-13-5 MOE gapmers. Antisense molecules with this motif targeting TGF-beta1 are unique, and represent a novel chemical structure for an ASO directed against this target. The gapmers are 20 nucleotides in length, wherein the central gap segments are comprised of thirteen 2′-deoxynucleotides and are flanked on the 5′ side by wings comprising two nucleotides each and on the 3′ side by wings comprising five nucleotides each. Each nucleotide in the 5′ wing segment and each nucleotide in the 3′ wing segment has a 2′-MOE modification. The internucleoside linkages throughout each gapmer are phosphorothioate (P═S) linkages. All cytosine residues throughout each gapmer are 5-methylcytosines. “Target start site” indicates the 5′-most nucleotide to which the gapmer is targeted. “Target stop site” indicates the 3′-most nucleotide to which the gapmer is targeted. Each gapmer listed in Table 1 is targeted to SEQ ID NO: 1 (GENBANK Accession No. NM_000660.3). Each gapmer listed in Table 2 is targeted to SEQ ID NO: 2 (GENBANK Accession No. NT 011109.15 truncated from 14103000 to […]).

Where “and” joins values, the source holds several entries; their conditions need not be identical. Equal values may be shown once. In the oligonucleotide strings, read from the 5' end, every base follows the letter of its sugar. An asterisk marks phosphorothioate; unmarked linkages are phosphodiester. Other units and linkages are bracketed, terminal groups are in braces. A string of capitals states the bases alone. e = 2'-O-(2-methoxyethyl) (MOE); [5mC] = 5-methylcytosine; d = 2'-deoxy (DNA)

Take “413967 (antisense eG*eA*dT*dG*dG*d[5mC]*d[5mC]*d[5mC]*dA*dG*dG*dG*d[5mC]*dG*d[5mC]*eG*eA*eA*eG*eG) [compound 413967]”: the “% inhibition” value was 64% and the “inhibition of a TGF-beta1 mRNA” value came to 60%.
Take “413968 (antisense eG*eA*dG*dA*dT*dG*dG*d[5mC]*d[5mC]*d[5mC]*dA*dG*dG*dG*d[5mC]*eG*e[5mC]*eG*eA*eA) [compound 413968]”: the “% inhibition” value came out at 55%.
As for “413969 (antisense e[5mC]*eG*dA*d[5mC]*dT*d[5mC]*d[5mC]*dT*dT*d[5mC]*d[5mC]*dT*d[5mC]*d[5mC]*dG*e[5mC]*eT*e[5mC]*e[5mC]*eG) [compound 413969]”, the “% inhibition” value is listed as 53%.
Regarding “413971 (antisense eG*eG*d[5mC]*d[5mC]*dT*d[5mC]*dA*dG*dG*d[5mC]*dT*dG*d[5mC]*dT*d[5mC]*e[5mC]*eT*e[5mC]*eG*eG) [compound 413971]”, the “% inhibition” value is recorded as 78%; the “inhibition of a TGF-beta1 mRNA” value is 60% and 65% and 70% and 75%.
Consider “413972 (antisense e[5mC]*eT*d[5mC]*dG*dT*d[5mC]*d[5mC]*d[5mC]*dT*d[5mC]*d[5mC]*dT*d[5mC]*d[5mC]*d[5mC]*eG*e[5mC]*eT*e[5mC]*e[5mC]) [compound 413972]”, for which the “% inhibition” value was 61% and the “inhibition of a TGF-beta1 mRNA” value is listed as 60%.
With “413973 (antisense e[5mC]*eA*dA*d[5mC]*dG*dG*dA*dA*dA*dA*dG*dT*d[5mC]*dT*d[5mC]*eA*eA*eA*eA*eG) [compound 413973]”, the “% inhibition” value was 25%.
As for “413974 (antisense eG*eG*d[5mC]*dA*dA*d[5mC]*dG*dG*dA*dA*dA*dA*dG*dT*d[5mC]*eT*e[5mC]*eA*eA*eA) [compound 413974]”, the “% inhibition” value was 69%; the “inhibition of a TGF-beta1 mRNA” value is 60% and 65%.
As for “413975 (antisense eG*e[5mC]*dG*dG*d[5mC]*dA*dA*d[5mC]*dG*dG*dA*dA*dA*dA*dG*eT*e[5mC]*eT*e[5mC]*eA) [compound 413975]”, the “% inhibition” value was 73%; the “inhibition of a TGF-beta1 mRNA” value is 60% and 65% and 70%.
In the case of “413976 (antisense e[5mC]*eA*dG*d[5mC]*dG*dG*d[5mC]*dA*dA*d[5mC]*dG*dG*dA*dA*dA*eA*eG*eT*e[5mC]*eT) [compound 413976]”, the “% inhibition” value is recorded as 72%; the “inhibition of a TGF-beta1 mRNA” value was 60% and 65% and 70%.
As for “413977 (antisense e[5mC]*e[5mC]*d[5mC]*dA*dG*d[5mC]*dG*dG*d[5mC]*dA*dA*d[5mC]*dG*dG*dA*eA*eA*eA*eG*eT) [compound 413977]”, the “% inhibition” value came out at 57%.
“413978 (antisense e[5mC]*eT*d[5mC]*d[5mC]*d[5mC]*dA*dG*d[5mC]*dG*dG*d[5mC]*dA*dA*d[5mC]*dG*eG*eA*eA*eA*eA) [compound 413978]”: the “% inhibition” value is recorded as 67%; the “inhibition of a TGF-beta1 mRNA” value was 60% and 65%.
For the substance “413980 (antisense e[5mC]*e[5mC]*dG*dG*d[5mC]*dT*d[5mC]*d[5mC]*d[5mC]*dA*dG*d[5mC]*dG*dG*d[5mC]*eA*eA*e[5mC]*eG*eG) [compound 413980]”, the “% inhibition” value turned out to be 74%; the “inhibition of a TGF-beta1 mRNA” value was 60% and 65% and 70%.
“413981 (antisense e[5mC]*eT*d[5mC]*d[5mC]*dG*dG*d[5mC]*dT*d[5mC]*d[5mC]*d[5mC]*dA*dG*d[5mC]*dG*eG*e[5mC]*eA*eA*e[5mC]) [compound 413981]”: the “% inhibition” value is given as 71%; the “inhibition of a TGF-beta1 mRNA” value is 60% and 65% and 70%.
As to “413983 (antisense eG*e[5mC]*dG*d[5mC]*d[5mC]*dT*d[5mC]*d[5mC]*dG*dG*d[5mC]*dT*d[5mC]*d[5mC]*d[5mC]*eA*eG*e[5mC]*eG*eG) [compound 413983]”, the “% inhibition” value turned out to be 78%; the “inhibition of a TGF-beta1 mRNA” value is 60% and 65% and 70% and 75%.
Consider “413984 (antisense e[5mC]*e[5mC]*dG*d[5mC]*dG*d[5mC]*d[5mC]*dT*d[5mC]*d[5mC]*dG*dG*d[5mC]*dT*d[5mC]*e[5mC]*e[5mC]*eA*eG*e[5mC]) [compound 413984]”, for which the “% inhibition” value worked out at 71%; the “inhibition of a TGF-beta1 mRNA” value is 60% and 65% and 70%.
Regarding “413985 (antisense e[5mC]*e[5mC]*d[5mC]*d[5mC]*dG*d[5mC]*dG*d[5mC]*d[5mC]*dT*d[5mC]*d[5mC]*dG*dG*d[5mC]*eT*e[5mC]*e[5mC]*e[5mC]*eA) [compound 413985]”, the “% inhibition” value turned out to be 66%; the “inhibition of a TGF-beta1 mRNA” value is 60% and 65%.
Turning to “413986 (antisense eG*eT*d[5mC]*d[5mC]*d[5mC]*d[5mC]*dG*d[5mC]*dG*d[5mC]*d[5mC]*dT*d[5mC]*d[5mC]*dG*eG*e[5mC]*eT*e[5mC]*e[5mC]) [compound 413986]”, the “% inhibition” value was determined as 69%; the “inhibition of a TGF-beta1 mRNA” value is 60% and 65%.
In the case of “413987 (antisense eA*eG*dG*dT*d[5mC]*d[5mC]*d[5mC]*d[5mC]*dG*d[5mC]*dG*d[5mC]*d[5mC]*dT*d[5mC]*e[5mC]*eG*eG*e[5mC]*eT) [compound 413987]”, the “% inhibition” value was 71%; the “inhibition of a TGF-beta1 mRNA” value is 60% and 65% and 70%.
As to “413988 (antisense eA*eA*dG*dT*d[5mC]*d[5mC]*dT*dG*d[5mC]*d[5mC]*dT*d[5mC]*d[5mC]*dT*d[5mC]*eG*e[5mC]*eG*eG*eG) [compound 413988]”, the “% inhibition” value is 63% and the “inhibition of a TGF-beta1 mRNA” value is 60%.
Regarding “413989 (antisense eG*eG*d[5mC]*dA*dA*dA*dG*dG*dG*dA*dG*dG*d[5mC]*dG*dG*eT*e[5mC]*eT*eG*eG) [compound 413989]”, the “% inhibition” value stood at 41%.
As to “413990 (antisense eG*e[5mC]*dG*dG*d[5mC]*dA*dA*dA*dG*dG*dG*dA*dG*dG*d[5mC]*eG*eG*eT*e[5mC]*eT) [compound 413990]”, the “% inhibition” value was 59%.
For “413991 (antisense e[5mC]*eG*dG*d[5mC]*dG*dG*d[5mC]*dA*dA*dA*dG*dG*dG*dA*dG*eG*e[5mC]*eG*eG*eT) [compound 413991]”, the “% inhibition” value was found to be 69%; the “inhibition of a TGF-beta1 mRNA” value was 60% and 65%.
As for “413992 (antisense e[5mC]*e[5mC]*d[5mC]*dG*dG*d[5mC]*dG*dG*d[5mC]*dA*dA*dA*dG*dG*dG*eA*eG*eG*e[5mC]*eG) [compound 413992]”, the “% inhibition” value is 60% and the “inhibition of a TGF-beta1 mRNA” value came to 60%.
“413993 (antisense eT*e[5mC]*d[5mC]*d[5mC]*d[5mC]*dG*dG*d[5mC]*dG*dG*d[5mC]*dA*dA*dA*dG*eG*eG*eA*eG*eG) [compound 413993]”: the “% inhibition” value came to 52%.
As for “413994 (antisense e[5mC]*eG*dT*d[5mC]*d[5mC]*d[5mC]*d[5mC]*dG*dG*d[5mC]*dG*dG*d[5mC]*dA*dA*eA*eG*eG*eG*eA) [compound 413994]”, the “% inhibition” value was found to be 67%; the “inhibition of a TGF-beta1 mRNA” value was 60% and 65%.
Turning to “413995 (antisense e[5mC]*e[5mC]*d[5mC]*dG*dA*dG*dG*dG*d[5mC]*dT*dG*dG*dT*d[5mC]*d[5mC]*eG*eG*eA*eA*eT) [compound 413995]”, the “% inhibition” value was found to be 72%; the “inhibition of a TGF-beta1 mRNA” value was 60% and 65% and 70%.
Turning to “413996 (antisense eA*eA*dG*dT*d[5mC]*dT*dT*dT*dG*d[5mC]*dG*dG*dG*dA*dG*eG*e[5mC]*e[5mC]*eG*eG) [compound 413996]”, the “% inhibition” value came to 51%.

These data come from US20110172296A1, “MODULATION OF TRANSFORMING GROWTH FACTOR-BETA 1 EXPRESSION” (priority 2010, published 2011).
